From patent US10752612B2, “PLK4 inhibitors” (LUDWIG INSTITUTE FOR CANCER RESEARCH LTD, priority 2015, dated 2020)

Target: T1, human Plk4 kinase domain (aa 2-275) (Homo sapiens, UniProt O00444)
T1 construct: purified 6×His-tagged human Plk4 kinase domain (aa 2-275); 6xHis; made in house; host or cells: E. coli
T1 sequence (O00444 2-275): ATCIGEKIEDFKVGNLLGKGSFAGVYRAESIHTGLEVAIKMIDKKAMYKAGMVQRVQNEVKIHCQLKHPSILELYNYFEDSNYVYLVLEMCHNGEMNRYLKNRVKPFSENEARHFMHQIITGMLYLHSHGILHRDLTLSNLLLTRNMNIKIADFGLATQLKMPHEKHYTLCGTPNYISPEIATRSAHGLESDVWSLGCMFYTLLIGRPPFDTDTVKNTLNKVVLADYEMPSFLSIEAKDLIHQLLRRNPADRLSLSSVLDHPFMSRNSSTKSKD
Test: Plk4 kinase assay (ADP-Glo)
Type: biochemical
Conditions: Table 1
Outline: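 Enzyme at 2.5-10 nM final, pH 8.0, reacted 4-16 hours at 25° C; ADP generation read by ADP-Glo luminescence. Ki derived from IC50 by Cheng-Prusoff or, for tight binders, Copeland formalism.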

`COCCN1CCN(c2nc(Sc3ccc(NC(C)=O)cc3)nc(Nc3cc(C)[nH]n3)c2OC)CC1` and `COCCN1CCN(c2nc(Sc3ccc(NC(C)=O)cc3)nc(Nc3cc(C)[nH]n3)c2C)CC1` cannot be ordered by IC50: under 1 µM for the first, under 1 µM for the second.

`Cc1cc(Nc2cc(N3CCN(CCN(C)C)CC3)nc(Sc3ccc(S(=O)(=O)Cc4ccccc4)cc3)n2)n[nH]1` and `COc1c(Nc2cc(C)[nH]n2)nc(Sc2ccc(S(=O)(=O)Cc3ccccc3)cc2)nc1N1CCN(CCN(C)C)CC1` cannot be ordered by IC50: under 1 µM for the first, under 1 µM for the second.

`CC(=O)Nc1ccc(Sc2nc(Nc3cc(C)[nH]n3)c(C)c(N3CC=C(F)CC3)n2)cc1` and `CC(=O)Nc1ccc(Sc2nc(Nc3cc(C)[nH]n3)c(C)c(N3CCN(C(C)=O)CC3)n2)cc1` cannot be ordered by IC50: under 1 µM for the first, under 1 µM for the second.

`COc1c(Nc2cc(C)[nH]n2)nc(Sc2ccc(S(=O)(=O)Cc3cccc(N(C)C)c3)cc2)nc1N1CCN(CCN(C)C)CC1` and `COc1c(Nc2cc(C)[nH]n2)nc(Sc2ccc(S(=O)(=O)Cc3cccc(Cl)c3)cc2)nc1N1CCN(CCN(C)C)CC1` cannot be ordered by IC50: under 1 µM for the first, under 1 µM for the second.

`COc1c(Nc2cc(C)[nH]n2)nc(Sc2ccc(S(C)(=O)=O)cc2F)nc1N1CCOC[C@@H]1C` and `COc1c(Nc2cc(C)[nH]n2)nc(Sc2ccc(S(=O)(=O)Cc3cccc(I)c3F)cc2F)nc1N1CCOCC1` cannot be ordered by IC50: under 1 µM for the first, under 1 µM for the second.

`COCCN1CCN(c2nc(Sc3ccc(NC(=O)C4CCCC4)cc3)nc(Nc3cc(C)[nH]n3)c2OC)CC1` and `COc1c(Nc2cc(C)[nH]n2)nc(Sc2ccc(NC(=O)C3CC3)cc2)nc1N1CCN(CCN(C)C)CC1` cannot be ordered by IC50: under 1 µM for the first, under 1 µM for the second.

`COCCN(C)c1nc(Sc2ccc(NC(=O)C3CC3)cc2)nc(Nc2cc(C)[nH]n2)c1C` and `COCCN(C)c1nc(Sc2ccc(NC(=O)C3CCCC3)cc2)nc(Nc2cc(C)[nH]n2)c1OC` cannot be ordered by IC50: under 1 µM for the first, 0.1 to 1 µM for the second.

`CCOc1c(Nc2cc(C)[nH]n2)nc(Sc2ccc(S(=O)(=O)Cc3ccccc3)cc2)nc1N1CCN(CCN(C)C)CC1` and `CCCOc1c(Nc2cc(C)[nH]n2)nc(Sc2ccc(S(=O)(=O)Cc3ccccc3)cc2)nc1N1CCN(CCN(C)C)CC1` cannot be ordered by IC50: under 1 µM for the first, under 1 µM for the second.

`COc1c(Nc2cc(C)[nH]n2)nc(Sc2ccc(S(C)(=O)=O)cc2Cl)nc1N1CCN(CCN(C)C)CC1` and `CCS(=O)(=O)c1ccc(Sc2nc(Nc3cc(C)[nH]n3)c(OC)c(N3CCN(CCN(C)C)CC3)n2)cc1` cannot be ordered by IC50: under 1 µM for the first, under 1 µM for the second.

`COc1c(Nc2cc(C)[nH]n2)nc(Sc2ccc(NC(=O)C3CC3)cc2)nc1N(C)CCN(C)C` and `CNCCN(C)c1nc(Sc2ccc(NC(=O)C3CC3)cc2)nc(Nc2cc(C)[nH]n2)c1OC` fall in the same range of IC50: 0.1 to 1 µM for the first, 0.1 to 1 µM for the second.

`COc1c(Nc2cc(C)[nH]n2)nc(Sc2ccc(NC(=O)C3CCCC3)cc2)nc1N1CCNCC1` and `COc1c(Nc2cc(C)[nH]n2)nc(Sc2ccc(NC(=O)C3CC3)cc2)nc1N1CCNCC1` cannot be ordered by IC50: under 1 µM for the first, under 1 µM for the second.

`CCS(=O)(=O)c1ccc(Sc2nc(Nc3cc(C)[nH]n3)c(OC)c(N3CCCCC3)n2)cc1` and `COc1c(Nc2cc(C)[nH]n2)nc(Sc2ccc(NC(C)=O)cc2)nc1N1CCCCC1` cannot be ordered by IC50: under 1 µM for the first, under 1 µM for the second.

`COc1c(Nc2cc(C)[nH]n2)nc(Sc2ccc(S(=O)(=O)C(C)(C)c3cccc([N+](=O)[O-])c3F)cc2F)nc1N1CCOCC1` and `COc1c(Nc2cc(C)[nH]n2)nc(Sc2ccc(S(=O)(=O)C(C)(C)c3cccc([N+](=O)[O-])c3F)cc2F)nc1N1CCCCC1` cannot be ordered by IC50: under 1 µM for the first, under 1 µM for the second.

`COc1c(Nc2cc(C)[nH]n2)nc(Sc2ccc(NC(C)=O)cc2)nc1N1CCN(CC(N)=O)CC1` and `COc1c(Nc2cc(C)[nH]n2)nc(Sc2ccc(NC(C)=O)cc2)nc1N1CCN(C(C)=O)CC1` cannot be ordered by IC50: under 1 µM for the first, under 1 µM for the second.

`CCS(=O)(=O)c1ccc(Sc2nc(Nc3cc(C)[nH]n3)c(OC)c(N3CCC(CCN4C5CCCC4CCC5)CC3)n2)cc1` and `COc1c(Nc2cc(C)[nH]n2)nc(Sc2ccc(S(=O)(=O)Cc3ccccc3)cc2)nc1N1CCN(CCN2C3CCCC2CCC3)CC1` cannot be ordered by IC50: under 1 µM for the first, under 1 µM for the second.

`COc1c(Nc2cc(C)[nH]n2)nc(Sc2ccc(NC(C)=O)cc2)nc1N1CCN(CCN2CCNCC2)CC1` and `CNCCN1CCN(c2nc(Sc3ccc(NC(C)=O)cc3)nc(Nc3cc(C)[nH]n3)c2OC)CC1` cannot be ordered by IC50: under 1 µM for the first, under 1 µM for the second.

`COc1c(Nc2cc(C)[nH]n2)nc(Sc2ccc(S(=O)(=O)Cc3cccc([N+](=O)[O-])c3F)cc2F)nc1N1CCCC[C@@H]1CO` and `COc1c(Nc2cc(C)[nH]n2)nc(Sc2ccc(S(=O)(=O)Cc3cccc([N+](=O)[O-])c3F)cc2)nc1N1CCCCC1` cannot be ordered by IC50: under 1 µM for the first, under 1 µM for the second.

`COc1c(Nc2cc(C)[nH]n2)nc(Sc2ccc(NC(C)=O)cc2)nc1N1CCC(CC(=O)N2CCCCC2)CC1` and `COc1c(Nc2cc(C)[nH]n2)nc(Sc2ccc(NC(C)=O)cc2)nc1N1CCC(N)CC1` cannot be ordered by IC50: under 1 µM for the first, under 1 µM for the second.

`CNC(=O)Nc1ccc(Sc2nc(Nc3cc(C)[nH]n3)c(C)c(N3CCN(C(=O)COC)CC3)n2)cc1` and `CCC(=O)N1CCN(c2nc(Sc3ccc(NC(C)=O)cc3)nc(Nc3cc(C)[nH]n3)c2C)CC1` cannot be ordered by IC50: under 1 µM for the first, under 1 µM for the second.

First: CCc1c(C)nc(Sc2ccc(NC(=O)C3CC3)cc2)nc1Nc1cc(C)[nH]n1
Second: Cc1cc(Nc2nc(Sc3ccc(NC(=O)C4CC4)cc3)nc3c2C(C)CC3)n[nH]1 (centres unmarked)
The IC50 of the first is higher: over 1 µM for the first, under 1 µM for the second. The second is the more potent here.

`CCOc1c(Nc2cc(C)[nH]n2)nc(Sc2ccc(NC(=O)C3CC3)cc2)nc1N1CCN(C(=O)CCOC)CC1` and `CCOc1c(Nc2cc(C)[nH]n2)nc(Sc2ccc(NC(=O)C3CC3)cc2)nc1N1CCC(O)CC1` cannot be ordered by IC50: 0.1 to 1 µM for the first, under 1 µM for the second.

First: CNC(=O)Cc1cc(Nc2nc(SC)nc(N3CCN(CCN(C)C)CC3)c2OC)n[nH]1
Second: CCc1cc(Nc2nc(SC)nc(N3CCN(CCN(C)C)CC3)c2OC)n[nH]1
The IC50 of the first is higher: over 1 µM for the first, under 1 µM for the second.

First: CCN(CC)c1nc(Sc2ccc(NC(=O)C3CCCC3)cc2)nc(Nc2cc(C)[nH]n2)c1C
Second: Cc1cc(Nc2nc(Sc3ccc(NC(=O)C4CC4)cc3)nc3c2CCC3)n[nH]1
The IC50 of the first is lower: 0.1 to 1 µM for the first, over 1 µM for the second. The first is the more potent here.

`CC(=O)Nc1ccc(Sc2nc(Nc3cc(C)[nH]n3)c(C)c(N3CCN(C4CCN(C)CC4)CC3)n2)cc1` and `CCCC(=O)Nc1ccc(Sc2nc(Nc3cc(C)[nH]n3)c(C)c(N3CCN(C)CC3)n2)cc1` cannot be ordered by IC50: under 1 µM for the first, under 1 µM for the second.

`CCOc1c(Nc2cc(C)[nH]n2)nc(Sc2ccc(NC(=O)C3CCCC3)cc2)nc1N1CCOCC1` and `CCOc1c(Nc2cc(C)[nH]n2)nc(Sc2ccc(NC(C)=O)cc2)nc1N1CCOCC1` fall in the same range of IC50: 0.1 to 1 µM for the first, 0.1 to 1 µM for the second.

`CCOc1c(Nc2cc(C)[nH]n2)nc(Sc2ccc(NC(C)=O)cc2)nc1N1CCCCC1` and `CCOc1c(Nc2cc(C)[nH]n2)nc(Sc2ccc(NC(C)=O)cc2)nc1N(C)C` fall in the same range of IC50: 0.1 to 1 µM for the first, 0.1 to 1 µM for the second.

`CCS(=O)(=O)c1ccc(Sc2nc(Nc3cc(C)[nH]n3)c(OC)c(N3CCN(CCN4CCN(C)CC4)CC3)n2)cc1` and `COc1c(Nc2cc(C)[nH]n2)nc(Sc2ccc(S(C)(=O)=O)cc2)nc1N1CCN(CCN2CCN(C)CC2)CC1` cannot be ordered by IC50: under 1 µM for the first, under 1 µM for the second.

`COc1c(Nc2cc(C)[nH]n2)nc(Sc2ccc(S(=O)(=O)Cc3cccc(F)c3F)cc2F)nc1N1CCN(CCN(C)C)CC1` and `COc1c(Nc2cc(C)[nH]n2)nc(Sc2ccc(S(=O)(=O)Cc3c(F)c(F)cc(Cl)c3F)cc2F)nc1N1CCN(CCN(C)C)CC1` cannot be ordered by IC50: under 1 µM for the first, under 1 µM for the second.

`COc1c(Nc2cc(C)[nH]n2)nc(Sc2ccc(S(=O)(=O)Cc3ccccc3)cc2)nc1N1CCN(CCN(C)c2ccccc2)CC1` and `COc1c(Nc2cc(C)[nH]n2)nc(Sc2ccc(S(=O)(=O)Cc3cccc(F)c3)cc2)nc1N1CCN(CCN(C)C)CC1` cannot be ordered by IC50: under 1 µM for the first, under 1 µM for the second.

`CNCC(=O)N1CCN(c2nc(Sc3ccc(NC(C)=O)cc3)nc(Nc3cc(C)[nH]n3)c2OC)CC1` and `COCC(=O)N1CCN(c2nc(Sc3ccc(N)cc3)nc(Nc3cc(C)[nH]n3)c2C)CC1` cannot be ordered by IC50: under 1 µM for the first, under 1 µM for the second.

`CCCS(=O)(=O)c1ccc(Sc2nc(Nc3cc(C)[nH]n3)c(OC)c(N3CCN(CCN(C)C)CC3)n2)cc1` and `COc1c(Nc2cc(C)[nH]n2)nc(Sc2ccc(S(=O)(=O)Cc3ccccc3C)cc2)nc1N1CCN(CCN(C)C)CC1` cannot be ordered by IC50: under 1 µM for the first, under 1 µM for the second.

`CCN(C)c1nc(Sc2ccc(NC(C)=O)cc2)nc(Nc2cc(C)[nH]n2)c1OC` and `COCCNc1nc(Sc2ccc(NC(C)=O)cc2)nc(Nc2cc(C)[nH]n2)c1C` cannot be ordered by IC50: under 1 µM for the first, under 1 µM for the second.

`CC(=O)Nc1ccc(Sc2nc(Nc3cc(C)[nH]n3)c(C)c(NC3CCNCC3)n2)cc1` and `CC(=O)Nc1ccc(Sc2nc(Nc3cc(C)[nH]n3)c(C)c(N3CCOC[C@@H]3C)n2)cc1` cannot be ordered by IC50: under 1 µM for the first, under 1 µM for the second.

`COc1c(Nc2cc(C)[nH]n2)nc(Sc2ccc(S(=O)(=O)Cc3ccccc3)cc2)nc1N1CCN(CCN2CCCC2)CC1` and `COc1c(Nc2cc(C)[nH]n2)nc(Sc2ccc(S(=O)(=O)Cc3ccccc3N(C)C)cc2)nc1N1CCN(CCN(C)C)CC1` cannot be ordered by IC50: under 1 µM for the first, under 1 µM for the second.

`CCOc1c(Nc2cc(C)[nH]n2)nc(SC)nc1N1CCC(O)CC1` and `CCOc1c(Nc2cc(C)[nH]n2)nc(SC)nc1N1CCN(C)CC1` fall in the same range of IC50: 0.1 to 1 µM for the first, 0.1 to 1 µM for the second.

`COc1c(Nc2cc(C)[nH]n2)nc(Sc2ccc(S(=O)(=O)C(F)c3c(F)c(F)cc(F)c3F)cc2F)nc1N1CCOCC1` (centres unmarked) and `COc1c(Nc2cc(C)[nH]n2)nc(Sc2ccc(S(=O)(=O)c3cccc([N+](=O)[O-])c3)cc2F)nc1N1CCOCC1` cannot be ordered by IC50: under 1 µM for the first, under 1 µM for the second.

`COc1c(Nc2cc(C)[nH]n2)nc(Sc2ccc(NC(C)=O)cc2)nc1N1CC(C)N(CCN(C)C)C(C)C1` (centres unmarked) and `CC(=O)Nc1ccc(Sc2nc(Nc3cc(C)[nH]n3)c(C)c(N3CCC(OCCN(C)C)CC3)n2)cc1` cannot be ordered by IC50: under 1 µM for the first, under 1 µM for the second.

`COc1c(Nc2cc(C)[nH]n2)nc(Sc2ccc(NC(=O)C3CC3)cc2)nc1NC1CCN(C)CC1` and `COc1c(Nc2cc(C)[nH]n2)nc(Sc2ccccc2)nc1N1CCN(CCN(C)C)CC1` fall in the same range of IC50: 0.1 to 1 µM for the first, 0.1 to 1 µM for the second.

For `COc1c(Nc2cc(C)[nH]n2)nc(Sc2ccc(NC(=O)c3cccc([N+](=O)[O-])c3F)cc2F)nc1N1CCOCC1`, the IC50 was 0.1 to 1 µM.
